Assay [1] deals with MDA-MB-231. The assay is described as follows: 2D cell viability (PrestoBlue resazurin) in MDA-MB-231. In kind it is cell-based, human. The note with it: read-out: Reduction of Cell Viability 24 h IC50; MDA-MB-231 2D monolayer, 24 h post-treatment, mean ± SD. The method, then:
Cell viability was determined based on resazurin-reduction in viable cells according to the PrestoBlue^TM Assay. On day 1, MDA-MB-231 (1.5 × 10^4 cells per well or 7.5 × 10^3 cells per well) were seeded into black 96 well plates (Greiner; #655090) in a total volume of 100 µL. On day 2, the compounds or DMSO (Roth; #A994.1) alone at maximal 0.1% were applied (final concentrations after serial dilution shown in Table 3). An amount of 20 µM staurosporine (Sigma-Aldrich; #S5921) served as a positive control. On day 3, the PrestoBlue^TM reagent (Invitrogen^TM, Darmstadt, Germany; #A13262) was applied according to the manufacturer`s instructions. Finally, cell viability-dependent fluorescence was recorded in relative fluorescence units (RFU) with excitation/emission (Exλ/Emλ) at 535/590 nm or 560/590 nm, using the microplate reader Spark® (Tecan).
(Alamar Blue is a resazurin reagent that responds to reducing activity.)

Another assay deals with NFκB. The assay is described as follows: NFκB inhibition assay (2 h), NFκB-dependent nanoluc luciferase reporter. In kind it is cell-based, human. The note with it: read-out: NFκB Inhibition 2 h IC50; NFκB-MDA-MB-231-nanoluc cells, 2-h treatment, mean ± SD. The method, then:
Experiments were performed according to the published protocol. On day 1, 4 × 10^4 NFκB-MDA-MB-231-nanoluc cells were seeded into white 96 well plates (Greiner; #655098). On day 2, the medium was replaced with starvation medium and the cells were pre-incubated for 20 min with either 100 µL of DMSO (Roth; #A994.1) alone at a concentration of maximal 0.1% or with the final concentration of the diluted compounds (Table 3). To activate NFκB signaling, cells were stimulated with 1 µg/mL LPS (Sigma-Aldrich; #L2630) beforehand. NFκB-dependent luciferase activity was measured according to the manufacturer`s protocol for the Nano-Glo Luciferase Assay System (Promega, Mannheim, Germany; #N1110). NFκB-dependent luminescence was determined as relative light units (RLU) using the microplate reader Spark® (Tecan, Männedorf, Switzerland).
(A reporter such as luciferase makes a cellular process visible.)

In assay [2] the test system is 3D co-culture spheroids of MDA-MB-231 and primary murine CAFs. The assay is described as follows: 3D cell viability (ATP content) in TNBC co-culture spheroids. The format is cell-based, human MDA-MB-231. The procedure:
On day 1, 3000 cells were seeded into a low-attachment 96 well plate (Greiner; #650970). […] Cell viability was determined based on the ATP content in viable cells according to the manufacturer`s instructions (Promega #G9682). Co-culture spheroids were generated for 72 h before they were grown for another 72 h with or without exposure to the compounds. […] Cell viability-dependent luminescence was determined as relative light units (RLU) using the microplate reader Spark® (Tecan).

Assay [3] deals with MDA-MB-231. The assay is described as follows: Cell cycle studies (PI-DNA flow cytometry) in MDA-MB-231. The format is cell-based, human. The note with it: MDA-MB-231, 20 nM, 72 h. The procedure:
To investigate cell cycle progression in the presence of compound (1s) or paclitaxel (Santa Cruz Biotechnology; #sc-201439), we quantified the DNA content in the cell. On day 1, the cells were seeded in 1 mL into a 24 well plate (Greiner; #662160). On day 2, MDA-MB-468-UnaG were pre-treated either without (normoxia) or with 100 µM CoCl2 (hypoxia) (Sigma-Aldrich; #C8661) for 24 h before compounds were applied. On day 2 for MDA-MB-231 or on day 3 for MDA-MB-468-UnaG, paclitaxel was applied at the concentrations 15 nM, 37 nM, and 100 nM, and compound (1s) was applied at concentrations ranging from 2 nM to 1000 nM. […] The fluorescence signal resulting from PI-DNA complex formation was recorded using the flow cytometer CytoFlex (Beckmann Coulter, Krefeld, Germany). The cell cycle phase population was determined based on the DNA content in a set of chromosomes (n) in a cell using the integrated software CytExpert (Beckmann Coulter): sub-G0/G1 (<2n), G0/G1 (2n), S (>2n, <4n), G2/M (4n) or hyperploid cells (>4n) (see Figure S10).
FSC-A and FSC-height (H). (c) To evaluate cell cycles phases, the range of analyzed cells was deter-mined within the (b) single cells by excluding recorded events that extend the proportional distri-bution of the DNA chromosome set (n): < 2n; > 4n. […]

Another assay concerns MDA-MB-468-UnaG. The assay is described as follows: Cell cycle studies (PI-DNA flow cytometry) in MDA-MB-468-UnaG. The format is cell-based. The note with it: normoxia. The procedure:
To investigate cell cycle progression in the presence of compound (1s) or paclitaxel (Santa Cruz Biotechnology; #sc-201439), we quantified the DNA content in the cell. On day 1, the cells were seeded in 1 mL into a 24 well plate (Greiner; #662160). On day 2, MDA-MB-468-UnaG were pre-treated either without (normoxia) or with 100 µM CoCl2 (hypoxia) (Sigma-Aldrich; #C8661) for 24 h before compounds were applied. On day 2 for MDA-MB-231 or on day 3 for MDA-MB-468-UnaG, paclitaxel was applied at the concentrations 15 nM, 37 nM, and 100 nM, and compound (1s) was applied at concentrations ranging from 2 nM to 1000 nM. Post-treatment cells were washed in 1× PBS (Thermo Fisher Scientific; #14190); fixed in 70% (v/v) ethanol overnight at 4 °C; washed again in 1× PBS; and, finally, DNA was stained for 15 min at 37 °C in the presence of 10 µg/mL propium iodide (PI; Sigma-Aldrich; #4864) and 100 µg/mL RNase A (Thermo Fisher Scientific; #EN0531) dissolved in 0.1% triton™ X-100 (Sigma-Aldrich; #X100), dissolved in PBS. The fluorescence signal resulting from PI-DNA complex formation was recorded using the flow cytometer CytoFlex (Beckmann Coulter, Krefeld, Germany). The cell cycle phase population was determined based on the DNA content in a set of chromosomes (n) in a cell using the integrated software CytExpert (Beckmann Coulter): sub-G0/G1 (<2n), G0/G1 (2n), S (>2n, <4n), G2/M (4n) or hyperploid cells (>4n) (see Figure S10).
On the technique in general: In flow cytometry, cells or beads pass a laser one at a time.

Read-outs that look alike come from different tables or passages of the source.

`COc1ccc2c3c(c4cc(OC)c(OC)cc4c2c1)CN1CCCC1C3O` (stereo not drawn) [Compound (1), O-methyltylophorinidine]: the 50% inhibitory concentration (IC50) (in general, the concentration needed to halve the response being measured) in the assay with MDA-MB-231 [1] stood at 13.6 ± 0.4 nM; with NFκB, 17.1 ± 2 nM; in assay [2] (read-out: Reduction of Cell Viability 72 h IC50, 3D co-culture spheroids, 72 h treatment, mean ± SD (n = 3)), 21.7 ± 2.5 nM. In the assay with MDA-MB-231 [3], the “cell cycle phase population” value is “Cell populations increased in the S-phase as well as in the G2/M phase”.

Take `COc1ccc2c3c(c4cc(OC)c(OC)cc4c2c1)CN1CCCC1C3O` (stereo not drawn) [Compound (1s), O-methyltylophorinidine]: the “sub-G0/G1 population” value in the assay on MDA-MB-468-UnaG (48 h) is reported as “increase in the sub-G0/G1 population”. Moreover, the “cell cycle phase population” value with MDA-MB-468-UnaG ((1s) 20 nM 72 h, paclitaxel within 24 h) is on record as “significant increase in G2/M population”. The IC50 in the assay on MDA-MB-231 [1] amounted to 4.2 ± 1 nM; in the assay with NFκB, 3.3 ± 0.2 nM; in assay [2] (Mus musculus, MDA-MB-231, 72 h, read-out: Reduction of Cell Viability 72 h IC50, 3D co-culture spheroids, 72 h treatment, mean ± SD (n = 3)), 11.2 ± 2.1 nM.

(Values after paper PMC9499467, “Phenanthroindolizidine Alkaloids Isolated from Tylophora ovata as Potent Inhibitors of Inflammation, Spheroid Growth, and Invasion of Triple-Negative Breast Cancer” (International Journal of Molecular Sciences, 2022).)
